Reference: paper PMC12299904, “Purine–Hydrazone Scaffolds as Potential Dual EGFR/HER2 Inhibitors” (Pharmaceuticals, 2025)
Several values for one entry are separate records, joined by “and”; a condition that tells them apart may be missing. Equal values may be shown once. Entries after “also recorded” stand apart in the source; their conditions may differ. Read-outs that look alike come from different tables or passages of the source.

Key:
[1] = test system: SKOV-3 cells; experiment: In vitro cytotoxicity assay (MTT), SKOV-3; type: cell-based, human; settings: for viability at 10 µM: SK-OV-3, read-out: percentage of cell viability, SKOV-3; for viability at 10 µM / IC50: 48 h, MTT; for IC50: mean ± SD, three experiments; for Selectivity index (SI), SKOV-3: IC50 against MRC-5/IC50 against SKOV-3
Procedure: (§1) The selected cell lines include A549, a lung cancer cell line that is characterized by its high expression of EGFR; SKOV-3, an ovarian cancer cell line, selected for its overexpression of both EGFR and HER2; and the breast cancer cell line (SKBR-3), characterized by HER2 overexpression.
(§2) Cells were passaged regularly at around 80% confluency using […] and maintained in 75 cm^2 flasks at 37 °C in a humidified atmosphere containing 5% CO2.
(§3) Approximately 10 × 10^3 cells were seeded per well of the 96-well plates using drug-free media and incubated for 24 h. […] After 48 h of drug exposure, the supernatant was aspirated, and the cells were washed with 100 μL of PBS. The MTT assay was performed by creating a stock solution of MTT at a concentration of 5 mg/mL in PBS. From this stock, a solution of MTT in the cell culture media was prepared to achieve a final concentration of 0.5 mg/mL. […] The MTT solution was thereafter removed, and the generated formazan crystals were dissolved by adding 100 μL of propanol/DMSO (50:50) per well. Absorbance was measured at 570 nm, and IC50 values for each compound were calculated by comparison against negative untreated controls.

[2] = test system: A549 cells; experiment: In vitro cytotoxicity assay (MTT), A549; settings: for viability at 10 µM / IC50: Homo sapiens, A549, 48 h; for viability at 10 µM: read-out: percentage of cell viability, A549; for Selectivity index (SI), A549: IC50 against MRC-5/IC50 against A549
Procedure: as §1, §2, §3

[3] = test system: A2780 cells; experiment: In vitro cytotoxicity assay (MTT), A2780; type: cell-based; settings: Homo sapiens, 48 h, read-out: percentage of cell viability, A2780
[4] = test system: A549, SKOV-3, A2780, SKBR-3 cells; experiment: MTT assay, ranges stated over several cell lines; type: cell-based, human; settings: Homo sapiens; 10 µM, 48 h; A549 and SKOV-3; read-out: cell viability range for A549 and SKOV-3
Procedure: as §1, §2, §3

[5] = biological target: T1, HER2 (Homo sapiens, UniProt P04626); experiment: In vitro enzyme inhibition assay, HER2 Kinase Assay Kit (BPS Bioscience); type: biochemical; settings: three independent experiments; read-out: Protein Kinase Inhibition IC50, HER2
T1 construct: purchased BPS Bioscience 40721

[6] = test system: A549 cells; experiment: Apoptosis analysis (Annexin V-FITC/PI, flow cytometry); type: cell-based, human; settings: A549, IC50 concentration, 24 h; for Apoptosis, Early / Apoptosis, Late / Necrosis: mean ± SD, % printed in text only
Procedure: Briefly, in flat-bottom 6-well plates, a total of 3 × 10^5 A549 cells were seeded per well and maintained at 37 °C for 24 h in a CO2 humidified atmosphere. Next, the cells were subjected to treatment with the equipotent concentration (1xIC50) of the tested compounds in the cell culture media. Following a 24 h incubation period, the supernatant was removed by suction, and attached cells were washed with PBS and collected using trypsin. Following the quenching of trypsin with culture media, the cells were resuspended as a single cell suspension in Annexin V binding buffer with 1% (v/v) propidium iodide and 1% (v/v) Annexin V-FITC. Negative (untreated) control samples were also included in the experiment. The samples were analyzed using flow cytometry, reading PI at Em. 617 nm, Ex. 535 nm, and Annexin-V-FITC at Em. 520 nm, Ex. 488 nm, while collecting 20,000 events/sample.

[7] = biological target: T2, EGFR (Homo sapiens, UniProt P00533); experiment: In vitro enzyme inhibition assay, EGFR Kinase Assay Kit (BPS Bioscience); type: biochemical; settings: three independent experiments; read-out: Protein Kinase Inhibition IC50, EGFR
T2 construct: purchased BPS Bioscience 40321

[8] = In vitro cytotoxicity assay (MTT), normal cell line MRC-5; type: cell-based; settings: MRC-5 normal embryonic lung cells, normal human embryonic lung cell line, mean ± SD
Procedure: as §2, §3

[9] = test system: SKBR-3 cells; experiment: In vitro cytotoxicity assay (MTT), SKBR-3; type: cell-based, human; settings: for IC50: MTT, 48 h, mean ± SD, three experiments; for Selectivity index (SI), SKBR-3: IC50 against MRC-5/IC50 against SKBR-3
Procedure: as §1, §2, §3

[10] = test system: A549 cells; experiment: Cell cycle assay (PI, flow cytometry); type: cell-based, human; settings: A549, IC50 concentration; for Cell cycle comment / DNA Content (%) %G0–G1 / DNA Content (%) %G2/M / DNA Content (%) %S: 24 h; for DNA Content (%) %G0–G1 / DNA Content (%) %G2/M / DNA Content (%) %S: mean ± SD; for Cell Cycle Distribution Index (CDI): CDI = (G2/M + S)/(G0–G1)
Procedure: In a flat-bottom 6-well plate, 3 × 10^5 A549 cells were seeded per well and incubated at 37 °C for 24 h to allow attachment. […] Following a 24 h incubation period, the supernatant was removed by suction, and adherent cells were washed with PBS and collected with trypsin. Additionally, negative control (untreated) samples were also prepared. The cells were resuspended in 2 mL of 80% v/v of cold methanol for 45 min to achieve fixation. After centrifugation, the methanol was discarded, and the resulting cell pellets were washed and stained at room temperature for 30 min in the dark using propidium iodide PI (10% v/v of a 1 mg/mL stock solution in PBS) and RNAse (15% v/v of a 1 mg/mL stock solution in PBS). The cells were analyzed using flow cytometry, reading histograms in the red channel adjusted to PI (Em. 617 nm, Ex. 535 nm).

[11] = read-out: Cytotoxicity (IC50), A549, MTT, 48 h, mean ± SD, three experiments

T2 sequence (P00533 25-1210): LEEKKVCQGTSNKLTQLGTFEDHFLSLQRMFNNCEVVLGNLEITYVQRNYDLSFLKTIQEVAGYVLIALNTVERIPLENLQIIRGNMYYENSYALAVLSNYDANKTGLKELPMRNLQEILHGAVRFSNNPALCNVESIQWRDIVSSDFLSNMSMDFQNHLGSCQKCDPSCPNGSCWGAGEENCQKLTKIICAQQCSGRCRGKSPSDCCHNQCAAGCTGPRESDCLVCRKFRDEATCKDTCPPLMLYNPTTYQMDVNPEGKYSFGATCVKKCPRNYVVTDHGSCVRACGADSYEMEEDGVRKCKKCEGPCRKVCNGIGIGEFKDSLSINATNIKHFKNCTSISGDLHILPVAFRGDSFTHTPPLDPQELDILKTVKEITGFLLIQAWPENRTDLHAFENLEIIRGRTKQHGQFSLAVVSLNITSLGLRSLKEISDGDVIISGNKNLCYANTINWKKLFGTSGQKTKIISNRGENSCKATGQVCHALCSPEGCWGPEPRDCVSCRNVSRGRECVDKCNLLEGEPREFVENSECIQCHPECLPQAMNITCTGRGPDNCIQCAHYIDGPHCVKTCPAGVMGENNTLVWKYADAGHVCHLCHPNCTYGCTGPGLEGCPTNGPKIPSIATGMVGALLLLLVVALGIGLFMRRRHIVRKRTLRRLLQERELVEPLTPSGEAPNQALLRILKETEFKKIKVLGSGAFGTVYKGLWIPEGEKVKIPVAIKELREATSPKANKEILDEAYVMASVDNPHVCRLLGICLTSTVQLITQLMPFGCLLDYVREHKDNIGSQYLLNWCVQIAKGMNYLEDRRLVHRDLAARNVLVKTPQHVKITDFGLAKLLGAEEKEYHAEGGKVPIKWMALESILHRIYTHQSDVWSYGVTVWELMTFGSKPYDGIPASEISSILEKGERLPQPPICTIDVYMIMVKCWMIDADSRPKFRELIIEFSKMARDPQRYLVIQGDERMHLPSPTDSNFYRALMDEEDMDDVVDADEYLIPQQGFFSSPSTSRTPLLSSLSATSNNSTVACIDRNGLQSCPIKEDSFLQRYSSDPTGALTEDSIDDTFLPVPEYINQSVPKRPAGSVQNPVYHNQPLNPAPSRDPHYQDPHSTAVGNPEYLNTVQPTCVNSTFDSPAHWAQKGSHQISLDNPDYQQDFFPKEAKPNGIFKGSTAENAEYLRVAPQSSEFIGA
T1 sequence (P04626 23-1255): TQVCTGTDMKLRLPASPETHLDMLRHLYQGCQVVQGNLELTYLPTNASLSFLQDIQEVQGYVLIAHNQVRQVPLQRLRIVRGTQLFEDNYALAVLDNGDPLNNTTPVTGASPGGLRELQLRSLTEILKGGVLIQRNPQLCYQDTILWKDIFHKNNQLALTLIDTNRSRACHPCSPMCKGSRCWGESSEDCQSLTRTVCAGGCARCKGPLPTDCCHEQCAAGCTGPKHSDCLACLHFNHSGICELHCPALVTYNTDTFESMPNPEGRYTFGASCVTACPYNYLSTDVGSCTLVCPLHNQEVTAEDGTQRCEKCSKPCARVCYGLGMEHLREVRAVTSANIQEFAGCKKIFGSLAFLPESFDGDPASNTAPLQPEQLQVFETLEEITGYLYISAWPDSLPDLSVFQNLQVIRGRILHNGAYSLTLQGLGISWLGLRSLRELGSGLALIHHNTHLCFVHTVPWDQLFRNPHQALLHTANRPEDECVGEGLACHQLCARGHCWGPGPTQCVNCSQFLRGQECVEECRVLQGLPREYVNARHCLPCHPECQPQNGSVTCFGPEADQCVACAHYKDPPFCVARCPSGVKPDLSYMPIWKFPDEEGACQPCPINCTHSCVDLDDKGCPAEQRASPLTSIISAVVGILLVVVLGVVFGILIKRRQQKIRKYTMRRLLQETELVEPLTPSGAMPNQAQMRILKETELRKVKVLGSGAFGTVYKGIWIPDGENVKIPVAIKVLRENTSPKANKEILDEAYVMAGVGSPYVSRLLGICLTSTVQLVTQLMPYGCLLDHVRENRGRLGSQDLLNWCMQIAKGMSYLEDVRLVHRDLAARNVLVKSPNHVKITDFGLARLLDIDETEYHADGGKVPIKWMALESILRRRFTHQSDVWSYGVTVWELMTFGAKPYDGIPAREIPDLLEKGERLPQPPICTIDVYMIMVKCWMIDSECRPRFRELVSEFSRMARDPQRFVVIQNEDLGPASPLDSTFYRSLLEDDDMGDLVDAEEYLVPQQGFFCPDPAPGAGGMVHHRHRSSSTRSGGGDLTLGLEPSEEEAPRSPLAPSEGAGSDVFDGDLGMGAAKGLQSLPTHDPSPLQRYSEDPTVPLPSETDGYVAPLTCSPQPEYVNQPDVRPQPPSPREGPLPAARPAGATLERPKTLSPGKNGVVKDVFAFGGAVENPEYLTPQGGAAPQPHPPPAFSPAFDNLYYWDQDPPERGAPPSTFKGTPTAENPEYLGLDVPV

O=C(N/N=C/c1ccccc1)c1ccc(Nc2ncnc3nc[nH]c23)cc1 [6a, (E)-4-((7H-Purin-6-yl)amino)-N′-benzylidenebenzohydrazide]
viability at 10 µM ([1]; Homo sapiens): 85%
viability at 10 µM [2]: 63%

O=C(N/N=C/c1ccccc1)c1ccc(Nc2ncnc3c2ncn3C2CCCC2)cc1 [6b, (E)-N′-benzylidene-4-((9-cyclopentyl-9H-purin-6-yl)amino)benzohydrazide]
viability at 10 µM [3]: 52%
viability at 10 µM ([1]; Homo sapiens): 60%
viability at 10 µM [2]: 50%

N#Cc1ccc(/C=N/NC(=O)c2ccc(Nc3ncnc4nc[nH]c34)cc2)cc1 [7a, (E)-4-((7H-Purin-6-yl)amino)-N′-(4-cyanobenzylidene)benzohydrazide]
viability at 10 µM ([1]; Homo sapiens): 58%
viability at 10 µM [2]: 50%

COc1cccc(/C=N/NC(=O)c2ccc(Nc3ncnc4nc[nH]c34)cc2)c1 [12a, (E)-4-((7H-Purin-6-yl)amino)-N′-(3-methoxybenzylidene)benzohydrazide]
viability at 10 µM [2]: 75%

COc1ccc(/C=N/NC(=O)c2ccc(Nc3ncnc4nc[nH]c34)cc2)cc1 [13a, (E)-4-((7H-Purin-6-yl)amino)-N′-(4-methoxybenzylidene)benzohydrazide]
viability at 10 µM [2]: 86%

O=C(N/N=C/c1ccc([N+](=O)[O-])cc1)c1ccc(Nc2ncnc3nc[nH]c23)cc1 [15a, (E)-4-((7H-Purin-6-yl)amino)-N′-(4-nitrobenzylidene)benzohydrazide]
viability at 10 µM ([1]; Homo sapiens): 44%
viability at 10 µM [2]: 49%

O=C(N/N=C/c1cccc(C(F)(F)F)c1)c1ccc(Nc2ncnc3nc[nH]c23)cc1 [16a, (E)-4-((7H-Purin-6-yl)amino)-N′-(3-(trifluoromethyl)benzylidene)benzohydrazide]
viability at 10 µM ([1]; Homo sapiens): 69%
viability at 10 µM [2]: 68%

O=C(N/N=C/c1ccc(F)c(C(F)(F)F)c1)c1ccc(Nc2ncnc3nc[nH]c23)cc1 [17a, (E)-4-((7H-Purin-6-yl)amino)-N′-(4-fluoro-3-(trifluoromethyl)benzylidene) benzohydrazide]
viability at 10 µM ([1]; Homo sapiens): 63%
viability at 10 µM [2]: 59%

COc1cc(C)c(/C=N/NC(=O)c2ccc(Nc3ncnc4c3ncn4C3CCCC3)cc2)cc1C [18b, (E)-4-((9-cyclopentyl-9H-purin-6-yl)amino)-N′-(4-methoxy-2,5-dimethylbenzylidene) benzohydrazide]
viability at 10 µM [4]: 81 to 100%

O=C(N/N=C/c1cccc(-c2ccccc2)c1)c1ccc(Nc2ncnc3nc[nH]c23)cc1 [19a, (E)-4-((7H-purin-6-yl)amino)-N′-([1,1′-biphenyl]-3-ylmethylene)benzohydrazide]
IC50 [5]: 0.059 ± 0.002 µM
percentage of live cells [6]: 62.3%
Apoptosis, Early [6]: 9.72% and 9.72 ± 1.06 %
Apoptosis, Late [6]: 23.13% and 23.13 ± 0.73 %
Necrosis [6]: 4.84 ± 0.34%
IC50 [7]: 0.08 µM and 0.081 µM
IC50 at 48 h [8]: 52.36 ± 0.283 µM
viability at 10 µM [3]: 18%
IC50 ([9]; Homo sapiens, SK-BR-3, 48 h): 1.41 µM
Selectivity index (SI), SKBR-3 [9]: 37.03
IC50 [9]: 1.41 ± 0.362 µM
IC50 ([1]; Homo sapiens, SK-OV-3, 48 h): 2.19 ± 0.16 µM
viability at 10 µM ([1]; Homo sapiens): 43%
Selectivity index (SI), SKOV-3 [1]: 23.88
IC50 [1]: 2.19 ± 0.164 µM
Cell cycle comment [10]: cell cycle arrest at the G1 phase
DNA Content (%) %G0–G1 [10]: 86.9% and 86.88% and 86.88 ± 0.95 %
DNA Content (%) %G2/M [10]: 3.9% and 3.90 ± 1.22 %
DNA Content (%) %S [10]: 9.2% and 9.21% and 9.21 ± 1.43 %
Cell Cycle Distribution Index (CDI) [10]: 0.15
IC50 [2, 11]: 0.81 ± 0.139 µM
viability at 10 µM [2]: 39%
Selectivity index (SI), A549 [2]: 64.6

O=C(N/N=C/c1cccc(-c2ccccc2)c1)c1ccc(Nc2ncnc3c2ncn3C2CCCC2)cc1 [19b, (E)-N′-((1,1′-biphenyl)-3-ylmethylene)-4-((9-cyclopentyl-9H-purin-6-yl)amino)benzohydrazide]
IC50 ([9]; Homo sapiens, SK-BR-3, 48 h): 3.2 ± 0.899 µM
IC50 ([1]; Homo sapiens, SK-OV-3, 48 h): 15.6 ± 1.48 µM
IC50 [2, 11]: 1.84 ± 0.082 µM

NS(=O)(=O)c1cc(/C=N/NC(=O)c2ccc(Nc3ncnc4c3ncn4C3CCCC3)cc2)ccc1F [22b, (E)-5-((2-(4-((9-cyclopentyl-9H-purin-6-yl)amino)benzoyl)hydrazineylidene)methyl)-2-fluorobenzenesulfonamide]
IC50 [5]: 0.03 µM and 0.033 µM
percentage of live cells [6]: 72.51%
Apoptosis, Early [6]: 5.92% and 5.92 ± 0.74 %
Apoptosis, Late [6]: 18.21% and 18.21 ± 0.12 %
Necrosis [6]: 3.35 ± 0.49%
IC50 [7]: 0.07 µM and 0.074 µM
IC50 at 48 h [8]: 60.59 ± 0.329 µM
viability at 10 µM [3]: 47%
IC50 ([9]; Homo sapiens, SK-BR-3, 48 h): 3.8 ± 1.4 µM
Selectivity index (SI), SKBR-3 [9]: 15.94
IC50 [9]: 3.8 ± 1.4 µM
IC50 ([1]; Homo sapiens, SK-OV-3, 48 h): 1.54 ± 0.47 µM
viability at 10 µM ([1]; Homo sapiens): 31%
Selectivity index (SI), SKOV-3 [1]: 39.32
IC50 [1]: 1.54 ± 0.47 µM
Cell cycle comment [10]: arrests the cell cycle at the G1 phase; also recorded: Cell cycle arrest@G1
DNA Content (%) %G0–G1 [10]: 77.0% and 77.04% and 77.04 ± 1.85 %
DNA Content (%) %G2/M [10]: 4.4% and 4.35% and 4.35 ± 0.29 %
DNA Content (%) %S [10]: 18.6% and 18.60 ± 2.00 %
Cell Cycle Distribution Index (CDI) [10]: 0.29
IC50 [2, 11]: 3.95 ± 0.615 µM
viability at 10 µM [2]: 35%
Selectivity index (SI), A549 [2]: 15.34

O=C(N/N=C/c1cccc2ccccc12)c1ccc(Nc2ncnc3nc[nH]c23)cc1 [23a, (E)-4-((7H-Purin-6-yl)amino)-N′-(naphthalen-1-ylmethylene) benzohydrazide]
viability at 10 µM ([1]; Homo sapiens): 92%
viability at 10 µM [2]: 74%

O=C(N/N=C/c1cccc2ccccc12)c1ccc(Nc2ncnc3c2ncn3C2CCCC2)cc1 [23b, (E)-4-((9-cyclopentyl-9H-purin-6-yl)amino)-N′-(naphthalen-1-ylmethylene)benzohydrazide]
viability at 10 µM [4]: 81 to 100%

C#Cc1cccc(Nc2ncnc3cc(OCCOC)c(OCCOC)cc23)c1 [Erlotinib, erlotinib, reference compound]
IC50 at 48 h [8]: 19.36 ± 0.138 µM
viability at 10 µM [3]: 39%
IC50 ([9]; Homo sapiens, SK-BR-3, 48 h): 5.12 ± 0.879 µM
IC50 ([1]; Homo sapiens, SK-OV-3, 48 h): 5.18 ± 1.2 µM
viability at 10 µM ([1]; Homo sapiens): 44%
IC50 ([2]; read-out: Cytotoxicity (IC50), A549): 2.42 ± 0.784 µM
viability at 10 µM [2]: 48%

CS(=O)(=O)CCNCc1ccc(-c2ccc3ncnc(Nc4ccc(OCc5cccc(F)c5)c(Cl)c4)c3c2)o1 [Lapatinib, lapatinib, reference compound]
IC50 at 48 h [8]: 43.94 ± 0.42 µM
IC50 ([9]; Homo sapiens, SK-BR-3, 48 h): 8.54 ± 0.64 µM
IC50 ([1]; Homo sapiens, SK-OV-3, 48 h): 16.9 ± 2.57 µM
IC50 [2, 11]: 11.6 ± 0.249 µM
